# Measured values from ChEMBL document CHEMBL4813963, “Discovery of pyrazolo-thieno[3,2-d]pyrimidinylamino-phenyl acetamides as type-II pan-tropomyosin receptor kinase (TRK) inhibitors: Design, synthesis, and biological evaluation” (Eur J Med Chem, 2021).
# Key:
# [1] = biological target: T1, High affinity nerve growth factor receptor (Homo sapiens, UniProt P04629); assay: Inhibition of recombinant His-tagged human TRKA (441 to 796 residues) expressed in baculovirus expression system at 20 uM using 5-FAM-EEPLYWSFPAKKK-CONH2 as substrate preincubated for 1 hr followed by substrate addition in presence of ATP by mobility shift assay relative to control
# Target sequence in this assay (P04629 33-796 limits assumed): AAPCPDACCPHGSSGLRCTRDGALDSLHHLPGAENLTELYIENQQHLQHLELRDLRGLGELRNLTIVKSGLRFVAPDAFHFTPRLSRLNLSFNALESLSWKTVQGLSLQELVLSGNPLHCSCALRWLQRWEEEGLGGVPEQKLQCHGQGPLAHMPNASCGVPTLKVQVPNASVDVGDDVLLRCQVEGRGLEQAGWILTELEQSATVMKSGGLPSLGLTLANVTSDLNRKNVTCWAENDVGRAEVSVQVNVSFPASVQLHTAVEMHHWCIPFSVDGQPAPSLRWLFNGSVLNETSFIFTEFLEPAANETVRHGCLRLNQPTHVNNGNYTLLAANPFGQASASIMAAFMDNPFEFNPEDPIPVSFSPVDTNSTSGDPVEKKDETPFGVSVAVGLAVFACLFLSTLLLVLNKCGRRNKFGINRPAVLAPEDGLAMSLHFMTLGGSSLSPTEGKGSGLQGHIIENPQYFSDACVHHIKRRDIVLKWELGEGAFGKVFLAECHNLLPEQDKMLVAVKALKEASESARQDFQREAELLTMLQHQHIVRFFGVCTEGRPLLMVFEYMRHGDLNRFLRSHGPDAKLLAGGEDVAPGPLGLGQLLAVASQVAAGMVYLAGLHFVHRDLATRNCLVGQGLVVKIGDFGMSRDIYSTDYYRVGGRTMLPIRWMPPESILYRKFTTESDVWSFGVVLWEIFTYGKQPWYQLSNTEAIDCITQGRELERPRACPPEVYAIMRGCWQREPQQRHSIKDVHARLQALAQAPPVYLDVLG
# KM12 = assay: Cytotoxicity against human KM12 cells assessed as reduction in cell viability incubated for 72 hrs by resazurin based assay; assay type: functional; settings: KM12, 72 h
# [2] = biological target: T1, High affinity nerve growth factor receptor; assay: Inhibition of recombinant His-tagged human TRKA (441 to 796 residues) expressed in baculovirus expression system using 5-FAM-EEPLYWSFPAKKK-CONH2 as substrate preincubated for 1 hr followed by substrate addition in presence of ATP by mobility shift assay
# Target sequence in this assay (P04629 whole entry, the tested form may be a part): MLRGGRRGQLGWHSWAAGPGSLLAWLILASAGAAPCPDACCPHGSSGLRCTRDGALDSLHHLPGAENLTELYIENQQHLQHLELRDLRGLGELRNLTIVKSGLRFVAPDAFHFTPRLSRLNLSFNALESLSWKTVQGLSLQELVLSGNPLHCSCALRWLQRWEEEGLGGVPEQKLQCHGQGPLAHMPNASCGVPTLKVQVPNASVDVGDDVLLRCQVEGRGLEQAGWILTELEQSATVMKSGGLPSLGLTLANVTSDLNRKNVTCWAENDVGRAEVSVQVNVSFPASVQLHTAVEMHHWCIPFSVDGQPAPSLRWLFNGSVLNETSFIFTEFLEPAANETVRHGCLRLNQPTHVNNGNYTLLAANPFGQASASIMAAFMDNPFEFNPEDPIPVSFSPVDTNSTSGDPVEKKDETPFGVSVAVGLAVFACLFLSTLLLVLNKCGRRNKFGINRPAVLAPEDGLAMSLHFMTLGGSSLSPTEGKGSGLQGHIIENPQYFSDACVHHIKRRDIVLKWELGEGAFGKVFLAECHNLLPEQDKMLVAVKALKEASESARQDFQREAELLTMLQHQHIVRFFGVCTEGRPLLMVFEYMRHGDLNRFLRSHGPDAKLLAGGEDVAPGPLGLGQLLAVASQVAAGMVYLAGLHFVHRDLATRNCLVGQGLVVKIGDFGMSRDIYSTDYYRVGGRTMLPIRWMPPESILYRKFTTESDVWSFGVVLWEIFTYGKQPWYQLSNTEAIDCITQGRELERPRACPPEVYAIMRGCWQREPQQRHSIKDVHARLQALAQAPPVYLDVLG
# Aurora kinase B = Aurora kinase B (Homo sapiens, UniProt Q96GD4); assay: Inhibition of Aurora B (unknown origin)
# Chain of Aurora kinase B (Q96GD4 whole entry): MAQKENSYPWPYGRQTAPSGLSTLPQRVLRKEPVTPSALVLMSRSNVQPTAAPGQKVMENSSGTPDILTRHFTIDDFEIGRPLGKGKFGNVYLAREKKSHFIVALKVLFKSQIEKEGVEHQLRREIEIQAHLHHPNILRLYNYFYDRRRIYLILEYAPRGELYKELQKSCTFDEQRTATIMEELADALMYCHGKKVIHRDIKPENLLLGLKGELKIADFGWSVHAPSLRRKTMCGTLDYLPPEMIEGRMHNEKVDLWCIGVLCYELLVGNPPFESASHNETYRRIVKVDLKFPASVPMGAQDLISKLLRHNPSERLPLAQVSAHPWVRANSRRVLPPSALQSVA
# Aurora kinase A = Aurora kinase A (Homo sapiens, UniProt O14965); assay: Inhibition of Aurora A (unknown origin)
# Chain of Aurora kinase A (O14965 whole entry): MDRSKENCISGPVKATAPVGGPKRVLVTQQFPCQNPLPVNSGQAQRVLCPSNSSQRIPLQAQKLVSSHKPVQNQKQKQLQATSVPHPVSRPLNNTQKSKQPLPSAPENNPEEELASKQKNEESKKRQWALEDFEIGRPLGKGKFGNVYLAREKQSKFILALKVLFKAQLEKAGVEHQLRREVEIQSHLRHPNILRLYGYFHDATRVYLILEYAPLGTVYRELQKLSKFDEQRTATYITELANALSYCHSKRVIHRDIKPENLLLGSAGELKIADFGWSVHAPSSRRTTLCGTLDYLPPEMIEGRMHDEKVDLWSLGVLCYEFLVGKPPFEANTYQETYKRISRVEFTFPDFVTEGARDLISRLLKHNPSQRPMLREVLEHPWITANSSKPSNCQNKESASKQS
# [3] = biological target: Epidermal growth factor receptor (Homo sapiens, UniProt P00533); assay: Inhibition of EGFR (unknown origin)
# Chain of Epidermal growth factor receptor (P00533 whole entry): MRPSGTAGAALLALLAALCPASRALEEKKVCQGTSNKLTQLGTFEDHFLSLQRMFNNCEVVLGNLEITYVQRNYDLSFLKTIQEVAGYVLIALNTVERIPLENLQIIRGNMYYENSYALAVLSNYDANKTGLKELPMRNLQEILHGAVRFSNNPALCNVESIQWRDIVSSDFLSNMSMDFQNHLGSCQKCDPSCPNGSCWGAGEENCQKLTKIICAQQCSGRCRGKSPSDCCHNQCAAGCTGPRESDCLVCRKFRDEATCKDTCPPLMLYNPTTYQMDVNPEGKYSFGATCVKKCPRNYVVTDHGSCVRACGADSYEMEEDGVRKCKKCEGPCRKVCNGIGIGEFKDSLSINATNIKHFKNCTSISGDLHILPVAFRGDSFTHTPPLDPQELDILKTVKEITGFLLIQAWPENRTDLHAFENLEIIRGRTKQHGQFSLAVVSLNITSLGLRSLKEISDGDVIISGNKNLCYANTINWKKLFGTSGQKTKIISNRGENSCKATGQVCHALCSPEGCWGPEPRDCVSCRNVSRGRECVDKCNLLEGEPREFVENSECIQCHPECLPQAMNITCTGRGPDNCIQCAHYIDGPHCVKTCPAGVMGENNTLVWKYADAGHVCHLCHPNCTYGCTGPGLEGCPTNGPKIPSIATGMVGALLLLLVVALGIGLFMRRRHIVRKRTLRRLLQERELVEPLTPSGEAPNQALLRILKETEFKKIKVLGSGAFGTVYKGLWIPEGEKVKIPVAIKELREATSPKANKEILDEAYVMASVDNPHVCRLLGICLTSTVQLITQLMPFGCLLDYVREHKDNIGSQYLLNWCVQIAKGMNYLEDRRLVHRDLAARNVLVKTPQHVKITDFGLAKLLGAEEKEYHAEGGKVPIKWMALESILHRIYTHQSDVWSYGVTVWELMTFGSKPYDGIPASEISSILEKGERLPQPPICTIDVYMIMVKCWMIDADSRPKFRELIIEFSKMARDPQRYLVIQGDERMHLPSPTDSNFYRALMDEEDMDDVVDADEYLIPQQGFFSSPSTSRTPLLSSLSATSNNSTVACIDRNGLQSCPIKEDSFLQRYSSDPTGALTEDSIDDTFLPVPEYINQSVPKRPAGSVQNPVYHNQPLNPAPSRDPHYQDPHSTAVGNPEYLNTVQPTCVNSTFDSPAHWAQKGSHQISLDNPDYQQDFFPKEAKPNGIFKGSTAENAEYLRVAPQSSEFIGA
# [4] = biological target: Mitogen-activated protein kinase kinase kinase kinase 4 (Homo sapiens, UniProt O95819); assay: Inhibition of MAP4K4 (unknown origin)
# [5] = biological target: Macrophage colony-stimulating factor 1 receptor (Homo sapiens, UniProt P07333); assay: Inhibition of CSF1R (unknown origin)
# Chain of Macrophage colony-stimulating factor 1 receptor (P07333 whole entry): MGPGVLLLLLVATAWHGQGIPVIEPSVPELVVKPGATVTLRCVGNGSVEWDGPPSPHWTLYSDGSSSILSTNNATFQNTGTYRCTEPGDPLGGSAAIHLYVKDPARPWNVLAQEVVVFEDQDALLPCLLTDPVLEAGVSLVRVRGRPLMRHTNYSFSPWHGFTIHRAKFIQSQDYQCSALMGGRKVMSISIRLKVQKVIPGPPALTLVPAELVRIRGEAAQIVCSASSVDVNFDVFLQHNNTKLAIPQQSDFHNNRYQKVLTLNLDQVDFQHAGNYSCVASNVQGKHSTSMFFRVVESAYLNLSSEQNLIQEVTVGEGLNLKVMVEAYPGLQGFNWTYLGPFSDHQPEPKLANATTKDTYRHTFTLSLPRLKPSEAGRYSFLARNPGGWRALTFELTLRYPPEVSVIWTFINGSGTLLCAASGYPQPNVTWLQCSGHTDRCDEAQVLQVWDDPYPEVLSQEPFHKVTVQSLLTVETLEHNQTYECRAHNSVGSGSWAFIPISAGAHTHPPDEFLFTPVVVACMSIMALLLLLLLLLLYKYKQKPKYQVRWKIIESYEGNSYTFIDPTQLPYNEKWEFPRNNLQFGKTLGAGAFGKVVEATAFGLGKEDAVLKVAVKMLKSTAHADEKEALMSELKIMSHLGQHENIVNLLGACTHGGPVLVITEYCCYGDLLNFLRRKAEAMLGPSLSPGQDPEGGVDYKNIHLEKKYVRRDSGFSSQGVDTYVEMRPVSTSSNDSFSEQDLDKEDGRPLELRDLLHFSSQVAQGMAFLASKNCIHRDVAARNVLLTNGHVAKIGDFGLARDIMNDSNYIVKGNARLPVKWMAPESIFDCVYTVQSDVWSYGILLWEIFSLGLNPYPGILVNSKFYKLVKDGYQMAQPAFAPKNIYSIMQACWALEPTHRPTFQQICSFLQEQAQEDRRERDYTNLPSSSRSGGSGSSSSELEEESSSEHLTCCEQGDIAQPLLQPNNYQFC
# [6] = biological target: Serine/threonine-protein kinase Nek2 (Homo sapiens, UniProt P51955); assay: Inhibition of NEK2 (unknown origin)
# Chain of Serine/threonine-protein kinase Nek2 (P51955 whole entry): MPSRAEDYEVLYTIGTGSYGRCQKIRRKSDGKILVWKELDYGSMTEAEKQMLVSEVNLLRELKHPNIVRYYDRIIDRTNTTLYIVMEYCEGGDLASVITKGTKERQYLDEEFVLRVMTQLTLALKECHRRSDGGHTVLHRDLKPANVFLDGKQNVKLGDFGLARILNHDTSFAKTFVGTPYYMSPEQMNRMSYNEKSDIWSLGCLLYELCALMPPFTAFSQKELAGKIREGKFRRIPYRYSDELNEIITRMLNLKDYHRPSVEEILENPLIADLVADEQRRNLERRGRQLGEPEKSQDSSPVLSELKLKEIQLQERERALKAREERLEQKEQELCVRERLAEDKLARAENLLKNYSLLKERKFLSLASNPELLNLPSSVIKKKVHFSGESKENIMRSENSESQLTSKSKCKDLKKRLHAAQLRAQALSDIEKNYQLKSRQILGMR
# [7] = Permeability of compound in human brain like endothelial cells BBB model at 10 uM after 120 mins by LC-MS analysis; assay type: ADME, cell-based; settings: read-out: permeability (converted)
SMILES,inhibition [1],IC50 (KM12),also measured
COc1ccc(Nc2ncnc3ccsc23)cc1,18%,103 µM,
COc1cc(-c2cc3ncnc(Nc4ccc(CC(=O)Nc5ccc(F)c(Cl)c5)cc4)c3s2)cc(OC)c1OC,,,IC50 [2]: > 200 µM
O=C(Cc1ccc(Nc2ncnc3ccsc23)cc1)N[C@H]1CCCC[C@@H]1O,,> 200 µM,IC50 [2]: 40.5 µM
Fc1ccc(Nc2ncnc3ccsc23)cc1,17.4%,133 µM,
Cn1cc(-c2cc3ncnc(Nc4ccc(CC(=O)Nc5cc(C(C)(C)C)nn5C)cc4)c3s2)cn1,,,"IC50 (Aurora kinase B): 1.99 µM; IC50 (Aurora kinase A): 0.893 µM; IC50 [3]: 176 µM; IC50 [4]: 41.5 µM; IC50 [5]: 13.6 µM; IC50 [6]: > 200 µM; Papp at 2 h, 10 µM [7]: 50.5 ×10⁻⁶ cm/s"

# Further lines, with some results ahead:
inhibition [1],SMILES,IC50 (KM12),also measured
18%,O=C(Cc1ccc(-c2ncnc3ccsc23)cc1)N[C@@H]1CCCC[C@H]1O,> 200 µM,
31.4%,Cn1nc(C(C)(C)C)cc1NC(=O)Cc1ccc(-c2ncnc3ccsc23)cc1,25.2 µM,
